The IC50 is the concentration that inhibits the measured activity by half.

SMILES strings stand for the structures.

The source of these data is US20240246908A1 (ORION CORPORATION, priority 2021, published 2024).

The test system of the assay is YAP-TEAD. In words: TEAD inhibition, Hippo Pathway TEAD Reporter MCF-7 luciferase assay. Format: cell-based. The note with it: Homo sapiens, MCF7, 24 h, Hippo Pathway TEAD Reporter MCF-7 cells, luciferase activity after 24 h; read-out: IC50 of the test compounds on YAP-TEAD inhibition (Group). In outline:
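IC50 derived from ONE-Glo luciferase luminescence after 24 h compound exposure (11 concentrations in quadruplicate, 0.1% DMSO control). Reporter: MCF-7 line expressing firefly luciferase under TEAD elements, constitutively activated by nuclear YAP1.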
As for `COc1ccc(Oc2ccc(F)c(F)c2)cc1NC(=O)C1CCC(=O)N1C(=O)C1CC(=O)N1` (centres unmarked) [Compound 232, N-(5-(3,4-difluorophenoxy)-2-methoxyphenyl)-5-oxo-1-(4-oxoazetidine-2-carbonyl)pyrrolidine-2-carboxamide], the concentration for half-maximal inhibition (IC50) was in the range of 50 to 300 nM.
With `CN1C(=O)CCC1C(=O)Nc1cc(Oc2cccc(C(F)(F)F)c2)cc2c1OCCO2` (centres unmarked) [Compound 233, 1-Methyl-5-oxo-N-(7-(3-(trifluoromethyl)phenoxy)-2,3-dihydrobenzo[b][1,4]dioxin-5-yl)pyrrolidine-2-carboxamide], the IC50 fell in the range of 50 to 300 nM.
Regarding `Cc1c(Oc2cccc(C(F)(F)F)c2)cc(NC(=O)C2CCC(=O)N2C)c2c1OCCO2` (centres unmarked) [Compound 236, 1-Methyl-N-(8-methyl-7-(3-(trifluoromethyl)phenoxy)-2,3-dihydrobenzo[b]-[1,4]dioxin-5-yl)-5-oxopyrrolidine-2-carboxamide], the IC50 lay within 301 to 2000 nM.
With `CN1C(=O)CCC1C(=O)Nc1cc(Oc2ccc(C(F)(F)F)cc2)cc2c1OCC2` (centres unmarked) [Compound 237, 1-Methyl-5-oxo-N-(5-(4-(trifluoromethyl)phenoxy)-2,3-dihydrobenzofuran-7-yl)pyrrolidine-2-carboxamide], the half-maximal inhibitory concentration (IC50) is less than 50 nM.
As to `CN1C(=O)CCC1C(=O)Nc1cc(OCc2cccc(C(F)(F)F)c2)cc2c1OCC2` (centres unmarked) [Compound 238, 1-Methyl-5-oxo-N-(5-((3-(trifluoromethyl)benzyl)oxy)-2,3-dihydrobenzofuran-7-yl)pyrrolidine-2-carboxamide], the IC50 was 50 to 300 nM.
`CN1C(=O)CCC1C(=O)Nc1cc(Oc2ccc(F)c(F)c2)cc2c1OCC2` (centres unmarked) [Compound 239, N-(5-(3,4-Difluorophenoxy)-2,3-dihydrobenzofuran-7-yl)-1-methyl-5-oxopyrro-lidine-2-carboxamide]: the IC50 is less than 50 nM.
For the compound `CN1C(=O)CCC1C(=O)Nc1cc(Oc2ccc(F)c(F)c2)cc2c1OCCO2` (centres unmarked) [Compound 240, N-(7-(3,4-Difluorophenoxy)-2,3-dihydrobenzo[b][1,4]dioxin-5-yl)-1-methyl-5-oxopyrrolidine-2-carboxamide], the IC50 is less than 50 nM.
The figure for `CN1C(=O)CCC1C(=O)Nc1cc(Oc2ccc(F)cc2)cc2c1OCCO2` (centres unmarked) [Compound 241, N-(7-(4-Fluorophenoxy)-2,3-dihydrobenzo[b][1,4]dioxin-5-yl)-1-methyl-5-oxo-pyrrolidine-2-carboxamide] is 50 to 300 nM; for `CN1C(=O)CCC1C(=O)Nc1cc(COc2ccc(F)c(F)c2)cc2c1OCC2` (centres unmarked) [Compound 242, N-(5-((3,4-Difluorophenoxy)methyl)-2,3-dihydrobenzofuran-7-yl)-1-methyl-5-oxopyrrolidine-2-carboxamide] it is 50 to 300 nM; for `CN1C(=O)CCC1C(=O)Nc1cc(COc2ccc(F)c(F)c2)cc2c1CCO2` (centres unmarked) [Compound 243, N-(6-((3,4-Difluorophenoxy)methyl)-2,3-dihydrobenzofuran-4-yl)-1-methyl-5-oxopyrrolidine-2-carboxamide] it is 301 to 2000 nM.
In the case of `CN1C(=O)CCC1C(=O)Nc1cc(Oc2ccc(C(F)(F)F)cn2)cc2c1ncn2C` (centres unmarked) [Compound 244, 1-Methyl-N-(1-methyl-6-((5-(trifluoromethyl)pyridin-2-yl)oxy)-1H-benzo-[d]imidazol-4-yl)-5-oxopyrrolidine-2-carboxamide], the concentration for half-maximal inhibition (IC50) is 50 to 300 nM.
`COc1ccc(CNc2cccc(F)c2)cc1NC(=O)C1CCC(=O)N1` (centres unmarked) [Compound 246, N-(5-(((3-Fluorophenyl)amino)methyl)-2-methoxyphenyl)-5-oxopyrrolidine-2-carboxamide]: the IC50 lay in the range of 301 to 2000 nM.
Consider `COc1ccc(OC2CCC(F)(F)CC2)cc1NC(=O)C1CCC(=O)N1C` (centres unmarked) [Compound 247, N-(5-((4,4-Difluorocyclohexyl)oxy)-2-methoxyphenyl)-1-methyl-5-oxopyrrolidine-2-carboxamide], for which the IC50 fell in the range of 50 to 300 nM.
In the case of `CN1C(=O)CCC1C(=O)Nc1cc(OCc2ccc(F)c(F)c2)cc2c1OCC2` (centres unmarked) [Compound 248, N-(5-((3,4-Difluorobenzyl)oxy)-2,3-dihydrobenzofuran-7-yl)-1-methyl-5-oxopyrrolidine-2-carboxamide], the half-inhibitory concentration (IC50) was less than 50 nM.
Take `CN1C(=O)CCC1C(=O)Nc1cc(COc2cccc(F)c2)cc2ccoc12` (centres unmarked) [Compound 249, N-(5-((3-Fluorophenoxy)methyl)benzofuran-7-yl)-1-methyl-5-oxopyrrolidine-2-carboxamide]: the IC50 lay in the range of 50 to 300 nM.
The figure for `COc1cc(Oc2ccc(F)c(F)c2)cc(NC(=O)C2CCC(=O)N2C)c1F` (centres unmarked) [Compound 251, N-(5-(3,4-difluorophenoxy)-2-fluoro-3-methoxyphenyl)-1-methyl-5-oxopyrro-lidine-2-carboxamide] is 301 to 2000 nM.
For the compound `COc1ccc(Oc2ccc(C(F)(F)F)cc2)cc1NC(=O)C12CCC(=O)N1CCS2(=O)=O` (centres unmarked) [Compound 252, N-(2-Methoxy-5-(4-(trifluoromethyl)phenoxy)phenyl)-5-oxotetrahydropyrrolo[2,1-b]thiazole-7a(5H)-carboxamide 1,1-dioxide], the IC50 lay in the range of 301 to 2000 nM.
Turning to `COc1cc(NC(=O)C2CCC(=O)N2)cc(Oc2ccc(C(F)(F)F)cc2)c1` (centres unmarked) [Compound 253, N-(3-Methoxy-5-(4-(trifluoromethyl)phenoxy)phenyl)-5-oxopyrro-lidine-2-carboxamide], the IC50 was less than 50 nM.
`COc1ccc(/C=C/c2cccc(F)c2)cc1NC(=O)C1CCC(=O)N1C` (centres unmarked) [Compound 254, (E)-N-(5-(3-Fluorostyryl)-2-methoxyphenyl)-1-methyl-5-oxopyrrolidine-2-carboxamide]: the IC50 is 50 to 300 nM.
Turning to `COc1ccc(OC2CCC(C(F)(F)F)CC2)cc1NC(=O)C1CCC(=O)N1C` (centres unmarked) [Compound 255, N-(2-Methoxy-5-((4-(trifluoromethyl)cyclohexyl)oxy)phenyl)-1-methyl-5-oxo-pyrrolidine-2-carboxamide], the half-inhibitory concentration (IC50) was less than 50 nM.
In the case of `COc1ccc(Cc2cccc(C(F)(F)F)c2)cc1NC(=O)C1CCC(=O)N1C` (centres unmarked) [Compound 256, N-(2-Methoxy-5-(3-(trifluoromethyl)benzyl)phenyl)-1-methyl-5-oxopyrrolidine-2-carboxamide], the IC50 lay within 50 to 300 nM.
`COc1ccc(Cc2ccc(C(F)(F)F)cc2)cc1NC(=O)C1CCC(=O)N1C` (centres unmarked) [Compound 257, N-(2-Methoxy-5-(4-(trifluoromethyl)benzyl)phenyl)-1-methyl-5-oxopyrrolidine-2-carboxamide]: the IC50 fell in the range of 50 to 300 nM.
`CN1C(=O)CCC1C(=O)Nc1cc(Oc2ccc(C(F)(F)F)cc2)ccc1Cl` (centres unmarked) [Compound 258, N-(2-Chloro-5-(4-(trifluoromethyl)phenoxy)phenyl)-1-methyl-5-oxopyrrolidine-2-carboxamide]: the IC50 was in the range of 50 to 300 nM.
In the case of `COc1ccc(NC(=O)C2CCC(=O)N2C)cc1Oc1ccc(C(F)(F)F)cc1` (centres unmarked) [Compound 259, N-(4-Methoxy-3-(4-(trifluoromethyl)phenoxy)phenyl)-1-methyl-5-oxo-pyrrolidine-2-carboxamide], the IC50 is 50 to 300 nM.
With `COc1ccc(Oc2ccc(F)cc2)cc1NC(=O)C1CCC(=O)N1C` (centres unmarked) [Compound 260, N-(5-(4-Fluorophenoxy)-2-methoxyphenyl)-1-methyl-5-oxopyrrolidine-2-carboxamide], the IC50 fell in the range of 50 to 300 nM.
With `COc1cc(NC(=O)C2CCC(=O)N2)cc(Oc2cccc(C(F)(F)F)c2)c1` (centres unmarked) [Compound 261, N-(3-Methoxy-5-(3-(trifluoromethyl)phenoxy)phenyl)-5-oxopyrrolidine-2-carboxamide], the half-inhibitory concentration (IC50) fell in the range of 50 to 300 nM.
